Experimental data reported in article PMC5303009, “Benzenesulphonamide inhibitors of the cytolytic protein perforin” (Bioorganic & Medicinal Chemistry Letters, 2017).
Several values for one entry are separate records, joined by “and”; a condition that tells them apart may be missing. Identical values can stand only once. Like-named read-outs stand apart in the source and are kept apart here. Each block holds one compound with its values, some of them ahead of it.

How the values were obtained:
[1] = target: T1, recombinant perforin (Mus musculus, UniProt P10820); settings: diarylthiophene series; cited from earlier work
T1 sequence (P10820 21-554): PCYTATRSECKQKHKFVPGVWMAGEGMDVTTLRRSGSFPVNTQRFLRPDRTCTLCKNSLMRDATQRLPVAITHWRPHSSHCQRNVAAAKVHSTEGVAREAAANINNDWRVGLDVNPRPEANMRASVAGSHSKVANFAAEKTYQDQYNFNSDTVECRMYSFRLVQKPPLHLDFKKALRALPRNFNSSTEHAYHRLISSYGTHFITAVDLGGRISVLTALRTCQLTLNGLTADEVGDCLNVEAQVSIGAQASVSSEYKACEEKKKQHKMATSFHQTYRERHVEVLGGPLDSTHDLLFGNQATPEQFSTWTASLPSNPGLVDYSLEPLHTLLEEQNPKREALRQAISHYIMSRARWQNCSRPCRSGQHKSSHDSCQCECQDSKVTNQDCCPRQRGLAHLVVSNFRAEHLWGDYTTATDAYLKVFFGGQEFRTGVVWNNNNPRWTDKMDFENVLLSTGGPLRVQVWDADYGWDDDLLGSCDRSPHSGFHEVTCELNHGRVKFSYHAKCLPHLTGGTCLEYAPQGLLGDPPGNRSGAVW

[2] = target: T1, recombinant perforin; test: Inhibition of perforin-mediated lysis of Jurkat cells (51Cr release); type: cell-based
Method: The ability of the compounds to inhibit the lysis of nucleated (Jurkat T lymphoma) cells in the presence of 0.1% BSA, as measured by release of ^51Cr was measured. Jurkat target cells were labelled by incubation in medium with 100 µCi ^51Cr for one hour. The cells were then washed three times to remove unincorporated isotope and re-suspended at 1 x 10^5 cells per mL in RPMI buffer supplemented with 0.1% BSA. […] The supernatant was collected and assessed for its radioactive content on a gamma counter (Wallac Wizard 1470 automatic gamma counter). Each data point was performed in triplicate and an IC50 was calculated from the range of concentrations described to above.

[3] = target: T1, recombinant perforin; test: as above; type: cell-based; settings: read-out: Inhibitory activity in Jurkat assay at 20 μM with serum
[4] = Stability in solution (water); type: physicochemical; settings: sodium salt, 24 h at 20 °C in water
[5] = tested on: KHYG-1 NK cells; test: Toxicity to KHYG-1 NK cells (Trypan blue exclusion); type: cell-based, human; settings: after 24 h, ± SEM, 20 µM
Method: (§1) The use of NK cells to secrete perforin rather than employing isolated recombinant protein is a more stringent test of a compound’s ability to block lytic activity, requiring the inhibitor to access the synaptic cleft between effector (NK) and target cells where perforin is released.
(§2) The toxicity assay was carried out in exactly the same manner as the killing assay above, but instead of adding the labelled K562 target cells, 100 μL of RPMI 0.1% BSA was added. Cells were incubated for 4 h at 37 °C and then washed ×3 in RPMI + 0.1% BSA. […] Trypan blue was added to each well. Viable (clear) cells and total (clear + blue) cells were counted, and the percentage of viable cells was calculated compared to DMSO treated cell control (% viability).

[6] = as above; type: cell-based, human; settings: human, KHYG-1 NK cells, after 24 h, ± SEM
Method: as §1, §2

[7] = Solubility of the sodium salt in water; type: physicochemical
[8] = Plasma protein binding by equilibrium dialysis; type: in vitro ADME; settings: mouse plasma, 6 h incubation at 37 °C
[9] = Microsome stability, mouse; type: in vitro ADME; settings: sodium salt, mouse microsomes, 30 min
[10] = Microsome stability, human; type: in vitro ADME; settings: sodium salt, human microsomes, 30 min
[11] = Microsome stability, rat; type: in vitro ADME; settings: sodium salt, rat microsomes, 30 min
[12] = target: T2, perforin delivered by KHYG-1 NK cells (Homo sapiens, UniProt P14222); test: KHYG-1 cytotoxicity assay: inhibition of NK cell lysis of 51Cr-labelled K562 target cells; type: cell-based; settings: lysis of 51Cr-labelled K562 cells co-incubated with KHYG-1 NK cells, vs untreated control, ± SEM
T2 construct: The use of NK cells to secrete perforin rather than employing isolated recombinant protein is a more stringent test; endogenous in cells; host or cells: KHYG-1 NK cells (effector), K562 target cells
T2 sequence (P14222 22-555): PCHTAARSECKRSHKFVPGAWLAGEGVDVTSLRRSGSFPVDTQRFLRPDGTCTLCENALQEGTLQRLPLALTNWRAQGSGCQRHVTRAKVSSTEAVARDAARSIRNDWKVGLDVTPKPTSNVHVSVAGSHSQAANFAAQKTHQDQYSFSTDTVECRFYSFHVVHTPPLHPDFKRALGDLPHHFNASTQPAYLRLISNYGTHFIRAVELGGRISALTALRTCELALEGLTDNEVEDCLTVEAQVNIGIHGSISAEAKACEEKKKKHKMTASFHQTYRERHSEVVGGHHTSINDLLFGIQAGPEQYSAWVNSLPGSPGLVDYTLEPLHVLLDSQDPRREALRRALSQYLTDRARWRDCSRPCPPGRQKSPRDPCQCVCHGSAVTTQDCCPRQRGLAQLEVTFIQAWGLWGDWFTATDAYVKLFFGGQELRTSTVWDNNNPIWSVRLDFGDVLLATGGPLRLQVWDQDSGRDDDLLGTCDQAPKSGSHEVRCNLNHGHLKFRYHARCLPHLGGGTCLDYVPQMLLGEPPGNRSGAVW
Method: as §1
Test compounds are then added (50 µL) at a final concentration of 20µM and incubated at RT for 20 min. ^51Cr-labelled K562 leukemia target cells (50 µL, 2 x 10^5 cells/mL) are then added to each well and incubated at 37 °C for 4 hours. ^51Cr release is assayed using a Skatron Harvesting Press and radioactivity estimated on a Wallac Wizard 1470 Automatic Gamma counter (Turku, Finland). The inhibitory function is then determined by identifying the number of untreated or inhibitor treated effector cells required to kill the same number of targets. The percent inhibition is calculated by the formula: […]
Where x is the point the inhibitor intersects with the DMSO on a curve.

[13] = target: Class I PI3-kinase enzyme p110α/p85 (Homo sapiens, UniProt P42336); test: PI3K-α counterscreening; type: biochemical; settings: recombinant PI3-kinase, phosphatidylinositol substrate, [33P]-ATP; read-out: PI3Kα IC50
Method: Given that the pyridine-3-yl-2,4-difluorobenzenesulphonamide subunit is derived from a structure that was optimised to target PI3Kα, it was also considered prudent to counter-screen for off-target effects related to this pathway.
Compounds were evaluated for their ability to inhibit the Class I PI3-kinase enzyme p110α/p85.

[14] = read-out: Inhibition of Jurkat cell lysis IC50; recombinant perforin, 0.1% BSA, 51Cr release, 4 h; average of at least two determinations
[15] = recombinant perforin, 0.1% BSA, 51Cr release, 4 h; average of at least two determinations; read-out: Inhibition of Jurkat cell lysis IC50
[16] = sodium salt in water at room temperature

Class I PI3-kinase enzyme p110α/p85, sequence (P42336 whole entry): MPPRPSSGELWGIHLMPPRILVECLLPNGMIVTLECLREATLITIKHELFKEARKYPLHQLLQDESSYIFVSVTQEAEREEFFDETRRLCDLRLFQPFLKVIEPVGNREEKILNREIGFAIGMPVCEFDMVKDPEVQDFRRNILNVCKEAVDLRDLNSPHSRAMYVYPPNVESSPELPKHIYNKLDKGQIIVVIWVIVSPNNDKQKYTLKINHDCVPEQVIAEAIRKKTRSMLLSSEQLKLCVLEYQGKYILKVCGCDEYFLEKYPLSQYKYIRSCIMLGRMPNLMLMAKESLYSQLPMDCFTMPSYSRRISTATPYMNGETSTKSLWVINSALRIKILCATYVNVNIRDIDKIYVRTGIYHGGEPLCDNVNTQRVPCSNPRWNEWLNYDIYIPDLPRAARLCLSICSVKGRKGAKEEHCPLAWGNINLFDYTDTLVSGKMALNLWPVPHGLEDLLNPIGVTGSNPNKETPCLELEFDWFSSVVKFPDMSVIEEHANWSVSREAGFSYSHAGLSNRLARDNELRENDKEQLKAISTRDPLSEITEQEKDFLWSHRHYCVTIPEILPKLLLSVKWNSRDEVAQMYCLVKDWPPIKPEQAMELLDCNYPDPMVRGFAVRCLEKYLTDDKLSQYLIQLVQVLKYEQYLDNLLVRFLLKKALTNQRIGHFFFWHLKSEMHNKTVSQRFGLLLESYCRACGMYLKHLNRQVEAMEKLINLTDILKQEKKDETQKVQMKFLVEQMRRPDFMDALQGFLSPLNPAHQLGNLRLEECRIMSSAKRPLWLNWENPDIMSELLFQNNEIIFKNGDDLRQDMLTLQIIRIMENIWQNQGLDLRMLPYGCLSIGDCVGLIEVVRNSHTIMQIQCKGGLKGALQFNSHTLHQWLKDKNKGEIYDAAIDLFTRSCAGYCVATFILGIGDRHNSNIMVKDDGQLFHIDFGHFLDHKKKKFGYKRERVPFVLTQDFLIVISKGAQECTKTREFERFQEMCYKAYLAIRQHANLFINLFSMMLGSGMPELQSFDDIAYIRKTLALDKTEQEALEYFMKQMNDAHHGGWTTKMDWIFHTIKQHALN
Class I PI3-kinase enzyme p110α/p85, sequence (P27986 whole entry partner): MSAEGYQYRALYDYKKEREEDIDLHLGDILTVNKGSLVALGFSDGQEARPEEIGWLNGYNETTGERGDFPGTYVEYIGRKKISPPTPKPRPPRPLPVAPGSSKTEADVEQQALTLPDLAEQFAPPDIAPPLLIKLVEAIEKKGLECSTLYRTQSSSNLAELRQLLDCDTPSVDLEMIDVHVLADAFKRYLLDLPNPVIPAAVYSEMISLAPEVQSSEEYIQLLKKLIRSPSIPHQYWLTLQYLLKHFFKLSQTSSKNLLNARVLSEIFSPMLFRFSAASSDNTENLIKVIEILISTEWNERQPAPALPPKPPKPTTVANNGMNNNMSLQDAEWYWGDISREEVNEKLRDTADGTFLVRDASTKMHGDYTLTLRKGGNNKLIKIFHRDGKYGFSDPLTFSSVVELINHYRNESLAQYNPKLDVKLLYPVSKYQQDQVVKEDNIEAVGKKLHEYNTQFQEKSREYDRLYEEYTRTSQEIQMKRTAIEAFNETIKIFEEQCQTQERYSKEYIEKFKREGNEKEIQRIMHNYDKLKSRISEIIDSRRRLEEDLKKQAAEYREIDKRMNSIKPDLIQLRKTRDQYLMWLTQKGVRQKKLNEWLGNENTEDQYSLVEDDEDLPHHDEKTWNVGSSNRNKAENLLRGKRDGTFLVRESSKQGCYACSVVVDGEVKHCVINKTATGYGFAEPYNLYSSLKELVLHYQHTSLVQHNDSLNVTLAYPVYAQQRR

Compound: NC(=O)c1ccc(-c2ccc(-c3ccc4c(c3)COC4=O)s2)cn1 [Compound 3]
Inhibition of isolated perforin [1]: sub-micromolar

Compound: CN1Cc2cc(-c3ccc(-c4cncc(NS(=O)(=O)c5ccc(F)cc5F)c4)nc3)ccc2C1=O [Compound 22]
IC50 [2, 14]: 8.17 µM

Compound: CN1C(=O)Cc2cc(-c3ccc(-c4cncc(NS(=O)(=O)c5ccc(F)cc5F)c4)s3)ccc21 [Compound 15]
IC50 [2, 14]: 10.3 µM

Compound: O=S(=O)(Nc1cncc(-c2ccc(-c3ccc4[nH]ccc4c3)s2)c1)c1ccc(F)cc1F [Compound 16]
inhibition at 20 µM ([2]; Jurkat, read-out: Inhibitory activity in Jurkat assay at 20 μM): 88%
inhibition at 20 µM [3]: 32%

IC50 [2, 15]: > 20 µM
Compound: O=C1NCCc2cc(-c3ccc(-c4cncc(NS(=O)(=O)c5ccc(F)cc5F)c4)s3)ccc21 [Compound 9]

Compound: O=C1NCc2ccc(-c3ccc(-c4cncc(NS(=O)(=O)c5ccc(F)cc5F)c4)s3)cc21 [Compound 7]
Stability in solution (% parent remaining) [4]: 97% and 97.3%
KHYG-1 viability (% at 20 μM) [5]: 96 ± 6.0%
viability at 24 h, 20 µM [6]: > 90%
IC50 [2, 14]: 4.15 µM
solubility ([7]; sodium salt in water): 12900 µg/mL
solubility [7, 16]: 12900 µg/mL
fraction unbound at 6 h [8]: 0.0003
Microsome stability (% parent remaining), Mouse [9]: 42%
Microsome stability (% parent remaining), Human [10]: 83%
Microsome stability (% parent remaining), Rat [11]: 82%

Stability in solution (% parent remaining) [4]: 82.0%
solubility ([7]; sodium salt in water): 10600 µg/mL
solubility [7, 16]: 10600 µg/mL
fraction unbound at 6 h [8]: 0.003
Microsome stability (% parent remaining), Mouse [9]: 92%
Microsome stability (% parent remaining), Human [10]: 85%
Microsome stability (% parent remaining), Rat [11]: 88%
Compound: O=C1NCc2cc(-c3ccc(-c4cncc(NS(=O)(=O)c5ccc(F)cc5F)c4)s3)ccc21 [Compound 6]
KHYG-1 viability (% at 20 μM) [5]: 94 ± 4.0%
viability at 24 h, 20 µM [6]: > 90%

Compound: Cn1ccc2cc(-c3ccc(-c4cncc(NS(=O)(=O)c5ccc(F)cc5F)c4)s3)ccc21 [Compound 17]
IC50 [2, 14]: 7.58 µM

Inhibition of Jurkat cell lysis IC50 ([2]; recombinant perforin, 0.1% BSA, 51Cr release, 4 h; average of at least two determinations): poor activity
IC50 [2, 15]: > 20 µM
Compound: CC1c2cc(-c3ccc(-c4cncc(NS(=O)(=O)c5ccc(F)cc5F)c4)s3)ccc2C(=O)N1C (stereo not drawn) [Compound 13]

IC50 [2, 15]: 15 µM
Compound: CN1Cc2cc(-c3ccc(-c4cncc(NS(=O)(=O)c5ccc(F)cc5F)c4)o3)ccc2C1=O [Compound 19]

Compound: CC(=O)c1cn(C)c2ccc(-c3ccc(-c4cncc(NS(=O)(=O)c5ccc(F)cc5F)c4)s3)cc12 [Compound 18]
IC50 [2, 14]: 11.2 µM

Compound: CN1Cc2ccc(-c3ccc(-c4cncc(NS(=O)(=O)c5ccc(F)cc5F)c4)s3)cc2C1=O [Compound 8]
IC50 [2, 14]: 10.4 µM

Compound: O=C1Cc2cc(-c3ccc(-c4cncc(NS(=O)(=O)c5ccc(F)cc5F)c4)s3)ccc2N1 [Compound 14]
Stability in solution (% parent remaining) [4]: 88.7%
KHYG-1 viability (% at 20 μM) [5]: 96 ± 1.0%
viability at 24 h, 20 µM [6]: > 90%
Fold superior to N-methyl partner 15 (Jurkat IC50) ([2]; compared with compound 15): ~2 fold
IC50 [2, 14]: 5.18 µM
solubility ([7]; sodium salt in water): 390 µg/mL
solubility [7, 16]: 392 µg/mL
fraction unbound at 6 h [8]: 0.0009
Microsome stability (% parent remaining), Mouse [9]: 84%
Microsome stability (% parent remaining), Human [10]: 71%
Microsome stability (% parent remaining), Rat [11]: 79%

IC50 [2, 15]: > 20 µM
Compound: O=C1NCCc2ccc(-c3ccc(-c4cncc(NS(=O)(=O)c5ccc(F)cc5F)c4)s3)cc21 [Compound 11]

IC50 [2, 15]: > 20 µM
Compound: CN1CCc2cc(-c3ccc(-c4cncc(NS(=O)(=O)c5ccc(F)cc5F)c4)s3)ccc2C1=O [Compound 10]

Compound: CS(=O)(=O)Nc1ccc(-c2ccc(-c3ccc4c(c3)COC4=O)s2)cc1 [Compound 2]
Inhibition of isolated perforin [1]: sub-micromolar

IC50 [2, 15]: > 20 µM
Compound: CN1Cc2cc(-c3nc(-c4cncc(NS(=O)(=O)c5ccc(F)cc5F)c4)cs3)ccc2C1=O [Compound 21]

Stability in solution (% parent remaining) [4]: 82% and 81.5%
solubility ([7]; sodium salt in water): 1100 µg/mL
solubility [7, 16]: 1080 µg/mL
fraction unbound at 6 h [8]: 0.0011
Microsome stability (% parent remaining), Human [10]: 58%
IC50 [13]: > 6.25 µM
Compound: CN1Cc2cc(-c3ccc(-c4cncc(NS(=O)(=O)c5ccc(F)cc5F)c4)s3)ccc2C1=O [Compound 5]
inhibition at 20 µM [12]: 88 ± 3.8%

Compound: CN1Cc2cc(-c3ncc(-c4cncc(NS(=O)(=O)c5ccc(F)cc5F)c4)s3)ccc2C1=O [Compound 20]
IC50 [2, 14]: 17.1 µM
